Source: US10131652B2, “Pyrimidinyloxy benzene derivatives as herbicides” (E. I. DU PONT DE NEMOURS AND COMPANY, priority 2014, dated 2018)

Key:
Type in all cases: in vivo
[1] = system: ragweed (common ragweed, Ambrosia elatior); assay: Test B pre-/postemergence plant response; conditions: for Ragweed plant response rating: 0 to 100 scale (0 no effect, 100 complete control)
Text: (§1) Seeds of plant species selected from bamyardgrass (Echinochloa crus-galli), kochia (Kochia scoparia), ragweed (common ragweed, Ambrosia elatior), Italian ryegrass (Lolium multiflorum), large (Lg) crabgrass (Digitaria sanguinalis), giant foxtail (Setaria faberii), momingglory (Ipomoea spp.), pigweed (Amaranthus retroflexus), velvetleaf (Abutilon theophrasti), wheat (Triticum aestivum), and corn (Zea mays) were planted into a blend of loam soil and sand and treated preemergence with a directed soil spray using test chemicals formulated in a non-phytotoxic solvent mixture which included a surfactant. At the same time, plants selected from these crop and weed species and also blackgrass (Alopecurus myosuroides), and galium (catchweed bedstraw, Galium aparine) were planted in pots containing the same blend of loam soil and sand and treated with postemergence applications of test chemicals formulated in the same manner. Plants ranged in height from 2 to 10 cm and were in the one- to two-leaf stage for the postemergence treatment. Treated plants and untreated controls were maintained in a greenhouse for approximately 10 days, after which time all treated plants were compared to untreated controls and visually evaluated for injury. Plant response ratings, summarized in Table B, are based on a 0 to 100 scale where 0 is no effect and 100 is complete control. A dash (-) response means no test result.

[2] = system: giant foxtail (Setaria faberii); assay: Test B pre-/postemergence plant response; conditions: for Foxtail, Giant plant response rating: 0 to 100 scale (0 no effect, 100 complete control)
Text: as §1

[3] = system: wheat (Triticum aestivum); assay: Test B pre-/postemergence plant response; conditions: 0 to 100 scale, 0 no effect, 100 complete control
Text: as §1

[4] = system: barnyardgrass (Echinochloa crus-galli); assay: Test B pre-/postemergence plant response; conditions: for Barnyardgrass plant response rating: 0 to 100 scale (0 no effect, 100 complete control)
Text: as §1

[5] = system: pigweed (Amaranthus retroflexus); assay: Test B pre-/postemergence plant response; conditions: for Pigweed plant response rating: 0 to 100 scale (0 no effect, 100 complete control)
Text: as §1

kochia (Kochia scoparia) = assay: Test B pre-/postemergence plant response; conditions: for Kochia plant response rating: 0 to 100 scale (0 no effect, 100 complete control)
Text: as §1

[6] = system: Italian ryegrass (Lolium multiflorum); assay: Test B pre-/postemergence plant response; conditions: for Ryegrass, Italian plant response rating: 0 to 100 scale (0 no effect, 100 complete control)
Text: as §1

corn (Zea mays) = assay: Test B pre-/postemergence plant response; conditions: 0 to 100 scale, 0 no effect, 100 complete control
Text: as §1

[7] = system: ducksalad (Heteranthera limosa); assay: Test C flooded paddy test plant response; conditions: Flood, 250 g ai/ha; scale of 0 to 100 where 0 is no effect and 100 is complete control; 13 to 15 days
How it was run: (§2)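 Two-leaf stage → flood to 3 cm → compound into water → hold depth, greenhouse 13–15 d → visual score vs controls (0 none, 100 complete control).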

[8] = system: barnyardgrass (Echinochloa crus-galli); assay: Test C flooded paddy test plant response; conditions: Flood, 250 g ai/ha; scale of 0 to 100 where 0 is no effect and 100 is complete control; 13 to 15 days
How it was run: as §2

rice (Oryza sativa) = assay: Test C flooded paddy test plant response; conditions: Flood, 250 g ai/ha; scale of 0 to 100 where 0 is no effect and 100 is complete control; 13 to 15 days
How it was run: as §2

[9] = system: small-flower umbrella sedge (Cyperus difformis); assay: Test C flooded paddy test plant response; conditions: Flood, 250 g ai/ha; scale of 0 to 100 where 0 is no effect and 100 is complete control; 13 to 15 days
How it was run: as §2

[10] = system: galium (catchweed bedstraw, Galium aparine); assay: Test B postemergence plant response; conditions: 0 to 100 scale, 0 no effect, 100 complete control
How it was run: (§3)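 Pots, loam soil + sand; postemergence treatment at 1–2 leaf stage, 2–10 cm; greenhouse ~10 d; visual injury score 0 (none) to 100 (complete control) relative to untreated controls.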

[11] = system: blackgrass (Alopecurus myosuroides); assay: Test B postemergence plant response; conditions: 0 to 100 scale, 0 no effect, 100 complete control
How it was run: as §3

[12] = 31 g ai/ha, Postemergence, 0 to 100 scale, 0 no effect, 100 complete control
[13] = 125 g ai/ha, postemergence, 0 to 100 scale, 0 no effect, 100 complete control
[14] = Preemergence, 125 g ai/ha, 0 to 100 scale where 0 is no effect and 100 is complete control

| Structure (SMILES) | Plant response rating, Ragweed [1, 12] | Plant response rating, Ragweed [1, 13] | Ragweed plant response rating ([1]; Preemergence, 31 g ai/ha) | Plant response rating, Ragweed [1, 14] | Plant response rating, Foxtail, Giant [2, 12] | Plant response rating, Foxtail, Giant [2, 13] | Foxtail, Giant plant response rating ([2]; Preemergence, 31 g ai/ha) | Plant response rating, Foxtail, Giant [2, 14] | Plant response rating, Wheat ([3]; 31 g ai/ha, Postemergence) | Plant response rating, Wheat ([3]; 125 g ai/ha, postemergence) | Plant response rating, Barnyardgrass [4, 12] | Plant response rating, Barnyardgrass [4, 13] | Barnyardgrass plant response rating ([4]; Preemergence, 31 g ai/ha) | Plant response rating, Barnyardgrass [4, 14] | Plant response rating, Pigweed [5, 12] | Plant response rating, Pigweed [5, 13] | Pigweed plant response rating ([5]; Preemergence, 31 g ai/ha) | Plant response rating, Pigweed [5, 14] | Plant response rating, Kochia (kochia (Kochia scoparia); [12]) | Plant response rating, Kochia (kochia (Kochia scoparia); [13]) | further results |
| --- | --- | --- | --- | --- | --- | --- | --- | --- | --- | --- | --- | --- | --- | --- | --- | --- | --- | --- | --- | --- | --- |
| CCn1nc(C(F)(F)F)cc1-c1c(C#N)cccc1Oc1ncc(Cl)cn1 [Compound 89] | 10 | 10 | 0 | 0 | 10 | 40 | 40 | 90 | 0 | 0 | 10 | 30 | 10 | 70 | 60 | 90 | 100 | 100 | 50 | 70 | Kochia plant response rating (kochia (Kochia scoparia); Preemergence, 31 g ai/ha): 0; Plant response rating, Kochia (kochia (Kochia scoparia); [14]): 0; Plant response rating, Ryegrass, Italian [6, 12]: 0; Plant response rating, Ryegrass, Italian [6, 13]: 0; Ryegrass, Italian plant response rating ([6]; Preemergence, 31 g ai/ha): 0; Plant response rating, Ryegrass, Italian [6, 14]: 0; Plant response rating, Corn (corn (Zea mays); 31 g ai/ha, Postemergence): 10; Plant response rating, Corn (corn (Zea mays); 125 g ai/ha, postemergence): 30; Ducksalad plant response rating [7]: 30; Barnyardgrass plant response rating [8]: 0; Rice plant response rating (rice (Oryza sativa)): 0; Sedge, Umbrella plant response rating [9]: 80; Plant response rating, Galium ([10]; 31 g ai/ha, Postemergence): 10; Plant response rating, Galium ([10]; 125 g ai/ha, postemergence): 50; Plant response rating, Blackgrass ([11]; 31 g ai/ha, Postemergence): 10; Plant response rating, Blackgrass ([11]; 125 g ai/ha, postemergence): 20 |
| CC(C)n1nc(C(F)(F)F)cc1-c1c(C#N)cccc1Oc1ncc(Cl)cn1 [Compound 90] | 0 | 0 | 0 | 0 | 0 | 0 | 0 | 0 | 0 | 0 | 0 | 0 | 0 | 0 | 0 | 10 | 0 | 20 | 0 | 10 | Kochia plant response rating (kochia (Kochia scoparia); Preemergence, 31 g ai/ha): 0; Plant response rating, Kochia (kochia (Kochia scoparia); [14]): 0; Plant response rating, Ryegrass, Italian [6, 12]: 0; Plant response rating, Ryegrass, Italian [6, 13]: 0; Ryegrass, Italian plant response rating ([6]; Preemergence, 31 g ai/ha): 0; Plant response rating, Ryegrass, Italian [6, 14]: 0; Plant response rating, Corn (corn (Zea mays); 31 g ai/ha, Postemergence): 0; Plant response rating, Corn (corn (Zea mays); 125 g ai/ha, postemergence): 0; Ducksalad plant response rating [7]: 0; Barnyardgrass plant response rating [8]: 0; Rice plant response rating (rice (Oryza sativa)): 0; Sedge, Umbrella plant response rating [9]: 0; Plant response rating, Galium ([10]; 31 g ai/ha, Postemergence): 0; Plant response rating, Galium ([10]; 125 g ai/ha, postemergence): 30; Plant response rating, Blackgrass ([11]; 31 g ai/ha, Postemergence): 0; Plant response rating, Blackgrass ([11]; 125 g ai/ha, postemergence): 0 |
| Clc1cnc(Oc2ccccc2-c2cc(C(Cl)Cl)on2)nc1 [Compound 97] | 20 | 50 | 0 | 0 | 0 | 30 | 10 | 30 | 0 | 0 | 0 | 20 | 0 | 0 | 60 | 90 | 20 | 50 | 60 | 90 | Kochia plant response rating (kochia (Kochia scoparia); Preemergence, 31 g ai/ha): 0; Plant response rating, Kochia (kochia (Kochia scoparia); [14]): 30; Plant response rating, Ryegrass, Italian [6, 12]: 0; Plant response rating, Ryegrass, Italian [6, 13]: 0; Ryegrass, Italian plant response rating ([6]; Preemergence, 31 g ai/ha): 0; Plant response rating, Ryegrass, Italian [6, 14]: 0; Plant response rating, Corn (corn (Zea mays); 31 g ai/ha, Postemergence): 0; Plant response rating, Corn (corn (Zea mays); 125 g ai/ha, postemergence): 20; Ducksalad plant response rating [7]: 0; Barnyardgrass plant response rating [8]: 0; Rice plant response rating (rice (Oryza sativa)): 0; Sedge, Umbrella plant response rating [9]: 50; Plant response rating, Galium ([10]; 31 g ai/ha, Postemergence): 10; Plant response rating, Galium ([10]; 125 g ai/ha, postemergence): 50; Plant response rating, Blackgrass ([11]; 31 g ai/ha, Postemergence): 0; Plant response rating, Blackgrass ([11]; 125 g ai/ha, postemergence): 0 |
| COc1cccc(Oc2ncc(Cl)cn2)c1-c1cc(C(F)F)no1 [Compound 103] | 20 | 60 | 0 | 10 | 40 | 70 | 50 | 90 | 0 | 0 | 0 | 40 | 0 | 50 | 30 | 80 | 100 | 100 | 0 | 30 | Kochia plant response rating (kochia (Kochia scoparia); Preemergence, 31 g ai/ha): 0; Plant response rating, Kochia (kochia (Kochia scoparia); [14]): 10; Plant response rating, Ryegrass, Italian [6, 12]: 0; Plant response rating, Ryegrass, Italian [6, 13]: 10; Ryegrass, Italian plant response rating ([6]; Preemergence, 31 g ai/ha): 0; Plant response rating, Ryegrass, Italian [6, 14]: 0; Plant response rating, Corn (corn (Zea mays); 31 g ai/ha, Postemergence): 0; Plant response rating, Corn (corn (Zea mays); 125 g ai/ha, postemergence): 30; Ducksalad plant response rating [7]: 40; Barnyardgrass plant response rating [8]: 60; Rice plant response rating (rice (Oryza sativa)): 30; Sedge, Umbrella plant response rating [9]: 80; Plant response rating, Galium ([10]; 31 g ai/ha, Postemergence): 90; Plant response rating, Galium ([10]; 125 g ai/ha, postemergence): 100; Plant response rating, Blackgrass ([11]; 31 g ai/ha, Postemergence): 30; Plant response rating, Blackgrass ([11]; 125 g ai/ha, postemergence): 90 |
